The text below walks through data of US7115574B2, “System and method for support legacy operating system booting in a legacy-free system” (priority 2001, dated 2006).

Data set [1] has as its system N9 clone of murine microglial cells. The data set is described as follows: TNF-α, IL-6 and NO2− production by LPS+IFN-γ activated microglia. In kind it is cell-based. As for the experimental part:
See Delgado, R., Carlin, A., Alraghi, L., Demitri, M., Meda, L., Galimberti, D., Pierluigi, B., Lipton, J. M., Catania, A., Melanocortin Peptides Inhibit Production of Proinflammatory Cytokines and Nitric Oxide by Activated Microglia, 63 J. of Leukocyte Biol. 740 (1998). […] The N9 clone of murine microglial cells was obtained by immortalization of embryonic brain cultures with the 3RV retrovirus carrying an activated v-myconcogene. N9 cells were cultured in T-75-cm^2 culture flasks (Coming, Cambridge, Mass.) and maintained at 37° C. in a humidified incubator under 5% CO2 atmosphere in RPMI 1640 supplemented with 2 mM L-glutamine, 50 U/mL penicillin G, 50 μg/mL streptomycin sulfate (GIBCO-BBL, Paisley, UK), and 10% heat-inactivated fetal bovine serum (FBS, Hyclone Lab, Inc., Logan, Utah) until experiments were performed. Cells were used between the first and the tenth passage.
Sub-confluent microglial cells were washed twice with phosphate-buffered saline (PBS) and incubated with trypsin 0.025% and ethylenediaminetetraacetate (EDTA) 0.02% without calcium and magnesium for 3 min. at 37° C. to detach the cells from the culture flask. Cells were then resuspended in medium and incubated in 24-well tissue-culture plates at a concentration of 2×10^5 cells/mL for 16 h in a humidified incubator (37° C., 5% CO2). Growth medium was removed and cell monolayers were stimulated with 10 ng/mL lipopolysaccharide (LPS, from Escherichia coli 055:B5, Sigma Chemical Co., St. Louis, Mo.) plus 1 U/ml, murine IFN-γ (Sigma). […] Although production of TNF-α and NO was reduced to even much lower concentrations of the peptides, concentrations in the micromolar range had the most profound and consistent inhibitory effects. […] Cell-free supernatants were harvested after 24 h incubation and assayed for TNF-α, IL-6 and NO2. Viability of cells was assessed by trypan blue exclusion for each experimental condition: it was consistently >98%. Dexamethasone (Sigma) and N-monomethyl-L-arginine (L-NMMA: 100 μM, Cayman Chemical, Ann Arbor, Mich.) were used as positive controls for TNF-α and NO inhibition, respectively. Tests were repeated in at least three independent experiments and assays were performed in triplicate.
TNF-α bioactivity was measured in supernatants of cell cultures by standard cytotoxicity assay using L929 cells and recombinant human TNF-α (Sigma) as standard. The detection limit of the bioassay was 20 pg/mL. IL-6 was measured using a commercial murine enzyme-linked immunosorbent assay (ELISA: RPN 2714, Amersham, Little Chalfont, UK).
NO is rapidly oxidized to nitrite in culture medium, and nitrite (NO2^−) concentration is an indicator of NO production. Cell-free culture supernatants were mixed with equal amounts of Griess reagent (1% sulfanilamide, 0.1% naphtylethylenediamide in 2.5% phosphoric acid) in wells of 96-well ELISA plates. Samples were incubated at room temperature for 10 min and absorbance was measured at 540 nm with the use of a microplate reader. Nitrite […] concentrations were calculated using a sodium nitrite standard curve.
Effects of melanocortin peptides on cytokine and NO production were evaluated by repeated measures analysis of variance followed by Dunnet's test for specific comparisons. Probability values less than 0.05 were considered significant.

Data set [2] has the same test system. The data set is described as follows: Northern blot of TNF-α and iNOS mRNA in activated microglia. The format is cell-based. The settings on record: peptide prior to LPS and IFN-γ. As for the experimental part:
Total cellular RNA was extracted from 10^6 adherent microglial cells plated in six-well tissue culture plates (Corning). Electrophoresis of RNA samples (10 μg/lane) was performed in 1% agarose/2.2 M formaldehyde gels and the gels subsequently blotted onto nylon filters by capillary action and baked for 2 h before prehybridization. The cDNA fragments encoding murine TNF-α and mouse macrophage iNOS were ^32P-labeled using the Ready-To-Go DNA Labeling Kit (Pharmacia, Uppsala, Sweden) before hybridization of nylon filters and autoradiography. Blots were subsequently rehybridized with human glyceraldehyde-3-phosphate dehydrogenase (G-3-PDH) cDNA probe as an internal control (Clontech Laboratories, Inc., Palo Alto, Calif.).

In data set [3] the test system is C. albicans. The data set is described as follows: C. albicans colony forming units (candidacidal activity). In kind it is cell-based. The settings on record: FIG. 2. On the procedure: C. albicans (clinical isolate) was obtained from the collection of the Department of Microbiology, Ospedale Maggiore di Milano and maintained on Sabouraud's agar slants and periodically transferred to Sabouraud's agar plates and incubated for 48 hours at 28° C. To prepare a stationary growth phase yeast, a colony was taken from the agar plate and transferred into 30 ml Sabouraud-dextrose broth and incubated for 72 hours at 32° C. Cells were centrifuged and suspended in Hank's balanced salt solution (“HBSS”) to the desired concentration. Viability, determined by the exclusion of 0.01% methylene blue, remained >98%.
C. albicans (1×10^6/ml in HBSS) was incubated in the presence or absence or α-MSH(1-13) (SEQ ID NO: 3) or (11-13) (SEQ ID NO: 1) at concentrations in the range of 10^−15 M to 10^−6 M for 2 hours at 37° C. Cells were then washed in cold distilled water and diluted with HBSS to a concentration of 100 organisms/ml. One-ml aliquots were dispensed on blood agar plates and incubated for 48 hours at 37° C. Organism viability was estimated from the number of colonies formed.
In subsequent experiments using familiar procedures we compared activity of α-MSH(4-10) (SEQ ID NO: 10), (6-13) (SEQ ID NO: 2), (11-13) (SEQ ID NO: 1), ACTH(1-39) (SEQ ID NO: 9), (18-39) (SEQ ID NO: 11) and fluconazole, the latter an established antifungal agent. Melanocortin peptides and fluconazole were tested in concentrations of 10^−6 M to 10^−4 M. There were at least six replicates for each concentration of peptide. […]

Data set [4] concerns C. albicans. The data set is described as follows: Horse serum-induced germ tube formation (germination) of C. albicans. The note with it: 10^−6M, 60 minutes at 37° C. after horse serum induction. In kind it is cell-based. On the procedure:
C. albicans from stationary phase cultures were washed twice with distilled water and suspended in HBSS to a final concentration of 2×10^6/ml. Hyphal growth was induced by addition of 10% inactivated horse serum (GIBCO/BRL, Great Britain) to yeast incubated for 45 minutes at 37° C. with continuous shaking. Horse serum was removed by washing cells twice with HBSS and incubation was continued for 60 minutes at 37° C. in the presence of α-MSH(1-13) (SEQ ID NO: 3), (6-13) (SEQ ID NO: 2) or (11-13) (SEQ ID NO: 1) at a concentration of 10^−6M with continuous shaking. The percentage of filamentous cells was evaluated under a light microscope with the aid of hemocytometer. Experiments were run in triplicate and at least 200 cells were scored. Photomicrographs were taken with a MC100 camera attached to an Axioskop Zeiss microscope.

The conditions of data set [5]: Lipton and Catania, Immunol. Today 1997; cited from earlier work.
[6] abbreviates: microglia stimulated with LPS+IFN-γ for 24 hr, micromolar concentrations.

Take “ACTH(1-24): melanocortin peptide ACTH(1-24) (Sigma) (SYSMEHFRWGKPVGKKRRPVKVYP; Designed polypeptide with anti-inflammatory, anti-microbial, anti-fungal, and anti-viral properties.) [reference compound]”: the “concentration most effective at inhibiting cytokine formation” value in data set [1] (LPS+IFN-γ stimulated microglia, 1-100 μM tested) fell in the range of 10 to 25 µM. In data set [1] (setting [6]), the “reduction of production of IL-6” value came out at 65%, the “reduction of production of NO2^−” value worked out at 41% and the “reduction of production of TNF-α” value came out at 38%. For the same substance, the “transcription levels (mRNA) for TNF-α and iNOS” value in data set [2] is listed as “inhibition of mRNA transcription”.
In the case of “HFRWGKPV (Ac-HFRWGKPV-NH2) [α-MSH(6-13), octapeptide fragment of α-MSH]”, the “relative potency in reducing C. albicans viability” value in data set [3] (10^−4M melanocortin peptides) is on record as “most effective”. Moreover, the “reduction in the number of filamentous cells / inhibition of germ tube formation” value in data set [4] is “approximately 50%”.
Regarding “α-MSH(4-10): core α-MSH sequence (4-10) [reference compound]”, the toxicity entry in data set [5] was “very low toxicity”. The “inhibition of CFU” value in data set [3] (10^−4M peptide as printed) is “approximately 50%”.
